Publication PMC5118696, “Identification of inhibitors that dually target the new permeability pathway and dihydroorotate dehydrogenase in the blood stage of Plasmodium falciparum” (Scientific Reports, 2016)
Read-outs that look alike come from different tables or passages of the source.

Legend:
[1] = tested on: Hyp1-NLuc Plasmodium falciparum-infected erythrocytes (new permeability pathway, NPP); assay: microbe, parasite or virus in culture; details: Erythrocyte, 0.33 h, read-out: Mean RLU at 28 min (As % of DMSO control)
[2] = tested on: Hyp1-NLuc Plasmodium falciparum-infected erythrocytes (new permeability pathway, NPP); assay: microbe, parasite or virus in culture; details: Erythrocyte, 0.33 h, read-out: % of control remaining

SMILES | activity at 2 µM [1] | activity at 2 µM [2]
Cc1cc(C)c2c(c1)OCN(Cc1ccccc1Cl)C2 [MMV006558] | 108% | 108%
CCOC(=O)c1cn(CC)c2cc(N3CCCCC3)c(F)cc2c1=O [MMV665827] | 104% | 100%
CC(C)(C)CC(C)(C)NCC(O)COc1ccc(Cl)cc1Cl (stereo not drawn) [MMV396794] | 111% | 109%
CCC(=O)Nc1nnc(Cc2ccc(OC)c(OC)c2)s1 [MMV020942] | 102% | 102%
COc1cccc(C(=O)NC(c2ccc(C)cc2)c2cc(Cl)c3cccnc3c2O)c1 (stereo not drawn) [MMV665969] | 101% | 106%
Cc1sc2ncnc(Sc3nc4ccccc4[nH]3)c2c1C [MMV019266] | 109% | 109%
CCCN(CCC)CC(O)COc1ccccc1C(=O)Nc1ccccc1 (stereo not drawn) [MMV006455] | 105% | 104%
CCOc1ccc(CN2CCN(CC(O)COc3ccc(OCC(O)CN4CCN(Cc5ccc(OCC)cc5)CC4)cc3)CC2)cc1 (stereo not drawn) [MMV007092] | 105% | 98.2%
O=C(NC1CCN(Cc2ccccc2)CC1)c1cc(-c2cccnc2)nc2ccc(Cl)cc12 [MMV020490] | 101% | 98.9%
COc1ccc(C2c3ccc4ccccc4c3Oc3ncn(CCCn4ccnc4)c(=N)c32)cc1OC (stereo not drawn) [MMV667490] | 102% | 98.4%
COc1ccc(-c2c(C)nn3c(N)c(C#N)cnc23)cc1OC [MMV396797] | 104% | 89.6%
CC(C)(C)c1ccc(C2CC3=Nc4ccccc4N(C(=O)c4ccccc4Cl)C(c4ccc(F)cc4)C3=C(O)C2)cc1 (stereo not drawn) [MMV011436] | 106% | 106%
O=C(Cc1ccccc1)NC(c1ccc(Cl)cc1)c1c(O)ccc2ccccc12 (stereo not drawn) [MMV665972] | 68.8% | 69.4%
CCOc1cc2c(cc1OCC)C(c1cc(OC)c(O)cc1Cl)NCC2 (stereo not drawn) [MMV008956] | 102% | 100%
CCc1ccc(CNCC(O)c2ccccc2)cc1 (stereo not drawn) [MMV665812] | 95.4% | 96.2%
CCCCOC(=O)c1ccc(Nc2cc(C)nc3ccc(OC)cc23)cc1 [MMV665797] | 104% | 107%
CC1(c2ccccc2)Nc2ccccc2-c2nc3ccccc3n21 (stereo not drawn) [MMV396715] | 102% | 100%
CCOc1cccc2sc(N(Cc3cccnc3)C(=O)C3CCCCC3)nc12 [MMV001230] | 103% | 113%
Cc1ccc(C)c(-c2csc(Nc3ccc(C)c(C)c3)n2)c1 [MMV007654] | 94.4% | 91.8%
Cc1ccc(N2C3c4ccccc4N(S(=O)(=O)c4ccc(C)cc4)C2c2ccccc2N3S(=O)(=O)c2ccc(C)cc2)cc1 [MMV007160] | 103% | 103%
Oc1c(C(Nc2ccccn2)c2cccc(Oc3ccccc3)c2)ccc2cccnc12 (stereo not drawn) [MMV665814] | 98.8% | 98.6%
CCOc1ccc(C2N(C)c3ccccc3N2C)cc1 [MMV075490] | 117% | 116%
O=C(Nc1nc(-c2ccccn2)cs1)c1ccccc1Br [MMV665909] | 95.5% | 103%
CC(C)OCc1cc(CN2CCN(c3cccc(Cl)c3)CC2)c(O)c2ncccc12 [MMV000788] | 109% | 107%
O=C(NCc1ccco1)C1CCN(S(=O)(=O)c2ccc(Br)cc2)CC1 [MMV007430] | 114% | 112%
COc1ccc(Nc2nc(NN=Cc3ccc(O)cc3)nc(Nc3ccc([N+](=O)[O-])cc3)n2)cc1 [MMV666689] | 95.2% | 93.1%

SMILES | activity at 2 µM [1] | activity at 2 µM [2]
COc1ccc(C(=O)C2CC2c2ccc(Cl)cc2)cc1 (stereo not drawn) [MMV665924] | 100% | 103%
CCOc1c(Cl)cc(CNCC(O)c2ccccc2)cc1OC (stereo not drawn) [MMV396632] | 99.9% | 101%
O=C1CC(O)(C(F)(F)C(F)(F)F)Oc2ccccc21 (stereo not drawn) [MMV000972] | 90.2% | 82.2%
CCC1(C)CC(CCNCc2ccccc2O)(c2ccc(C)cc2)CCO1 (stereo not drawn) [MMV019406] | 107% | 105%
O=C(Nc1ccc(CN2CCOCC2)cc1)c1ccc(-c2cc(Cl)ccc2Cl)o1 [MMV020651] | 105% | 103%
CC(C)(C)c1ccc(C(=O)Nc2nc3ccccc3s2)cc1 [MMV142383] | 110% | 121%
O=C(Nc1ccccc1O)c1ccc(Oc2cccc(C(=O)Nc3ccccc3O)c2)cc1 [MMV665888] | 102% | 104%
COc1ccc(-n2ccnc2SCC(=O)Nc2cc(C)ccc2C)c(OC)c1 [MMV019258] | 117% | 115%
CN1CCN(c2nc(Nc3ccc(O)cc3)nc3ccccc23)CC1 [MMV000986] | 102% | 101%
O=C(Nc1cccc(C(F)(F)F)c1)c1cc(Cl)ccc1O [MMV665807] | 99% | 105%
Cc1ccc(Nc2nc(NCCO)c3ccccc3n2)cc1C [MMV001038] | 102% | 102%
CCCc1c(C)nc2ccc(Br)cc2c1O [MMV666095] | 104% | 113%
CCOC(=O)c1c(C)n(-c2ccc(Cl)cc2)c2ccc(OC(=O)C=Cc3ccccc3)cc12 [MMV666600] | 101% | 100%
Oc1ccc(C(=C(Cl)Cl)c2ccc(O)cc2)cc1 [MMV665949] | 90% | 95.5%
CCOc1ccc2nc(C)cc(Nc3ccc(Br)cc3)c2c1 [MMV006522] | 102% | 104%
COc1ccccc1CNC(=O)CCn1c(=O)[nH]c2ccsc2c1=O [MMV019066] | 98.8% | 96.9%
COc1ccc(C(C)=O)cc1N1C(=O)C2C(C1=O)C1(c3ccccc3)C(=O)C2(c2ccccc2)C(c2ccc(C)cc2)=C1c1ccc(C)cc1 (stereo not drawn) [MMV007695] | 98.9% | 98.4%
O=C(CCl)NCCOc1ccc(Cl)cc1Cl [MMV665927] | 98.1% | 86.2%
CCOc1ccc(-c2nc(NC(=O)c3cccc(S(C)(=O)=O)c3)sc2C)cc1 [MMV665913] | 98.8% | 106%
Cc1cc(Nc2ccc(Cl)cc2)n2nc(C(F)(F)F)nc2n1 [MMV011256] | 111% | 109%
Cc1ccc(C(=O)c2oc3ccc4c(C)cc(=O)oc4c3c2C)cc1 [MMV086103] | 94.6% | 95.7%
Cc1ccc(C)c(Cn2c(N3CCC(C(=O)NCc4cccs4)CC3)nc3ccccc32)c1 [MMV019741] | 104% | 112%
CCCOCc1cc(CN2CCN(c3cccc(Cl)c3)CC2)c(O)c2ncccc12 [MMV000787] | 101% | 111%
O=c1cc(NC2CCN(CCCc3ccccc3)CC2)c2cc(Cl)ccc2o1 [MMV665786] | 96.5% | 89.1%
COc1ccc2nc(C)cc(Nc3cccc(O)c3)c2c1 [MMV008212] | 106% | 107%
